Reference: ChEMBL document CHEMBL1201862, “PubChem BioAssay data set” (2004)
The source made the active and inactive calls.

Legend:
[1] = NIH3T3 cell viability loss – ATP luminescence, mouse fibroblasts, counter-screen, dose response (AID 2010); assay type: functional, cell-based;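 also: cells exposed to compound for about 90 hours before reading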
[2] = target: ADP-ribosylation factor GTPase-activating protein 1 (Rattus norvegicus, UniProt Q62848); experiment: Fluorescence polarization-based biochemical high throughput dose response screening assay to identify inhibitors of ADP-ribosylation factor GTPase activating protein 1 (ARFGAP1).; assay type: functional
[3] = Trypanosoma cruzi growth suppression in host cells – NIH3T3 host cells, beta-gal luminescence, confirmation (AID 2044); assay type: functional, cell-based;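 also: intracellular parasites grown in NIH/3T3 mouse fibroblasts as host cells; luminescent beta-galactosidase reporter signal from transgenic T. cruzi replicating inside host cells; inhibitors lower the luminescence signal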
[4] = target: Dual specificity tyrosine-phosphorylation-regulated kinase 1A (Rattus norvegicus, UniProt Q63470); assay type: biochemical, Homo sapiens
Hexokinase HKDC1 = target: T1, Hexokinase HKDC1 (Homo sapiens, UniProt Q2TB90); experiment: SAR analysis of small molecule inhibitors of hexokinase domain containing I (HKDC1). [Related pubchem assays (depositor defined):AID493160, AID493190]; assay type: functional
T1 sequence (Q2TB90 whole entry): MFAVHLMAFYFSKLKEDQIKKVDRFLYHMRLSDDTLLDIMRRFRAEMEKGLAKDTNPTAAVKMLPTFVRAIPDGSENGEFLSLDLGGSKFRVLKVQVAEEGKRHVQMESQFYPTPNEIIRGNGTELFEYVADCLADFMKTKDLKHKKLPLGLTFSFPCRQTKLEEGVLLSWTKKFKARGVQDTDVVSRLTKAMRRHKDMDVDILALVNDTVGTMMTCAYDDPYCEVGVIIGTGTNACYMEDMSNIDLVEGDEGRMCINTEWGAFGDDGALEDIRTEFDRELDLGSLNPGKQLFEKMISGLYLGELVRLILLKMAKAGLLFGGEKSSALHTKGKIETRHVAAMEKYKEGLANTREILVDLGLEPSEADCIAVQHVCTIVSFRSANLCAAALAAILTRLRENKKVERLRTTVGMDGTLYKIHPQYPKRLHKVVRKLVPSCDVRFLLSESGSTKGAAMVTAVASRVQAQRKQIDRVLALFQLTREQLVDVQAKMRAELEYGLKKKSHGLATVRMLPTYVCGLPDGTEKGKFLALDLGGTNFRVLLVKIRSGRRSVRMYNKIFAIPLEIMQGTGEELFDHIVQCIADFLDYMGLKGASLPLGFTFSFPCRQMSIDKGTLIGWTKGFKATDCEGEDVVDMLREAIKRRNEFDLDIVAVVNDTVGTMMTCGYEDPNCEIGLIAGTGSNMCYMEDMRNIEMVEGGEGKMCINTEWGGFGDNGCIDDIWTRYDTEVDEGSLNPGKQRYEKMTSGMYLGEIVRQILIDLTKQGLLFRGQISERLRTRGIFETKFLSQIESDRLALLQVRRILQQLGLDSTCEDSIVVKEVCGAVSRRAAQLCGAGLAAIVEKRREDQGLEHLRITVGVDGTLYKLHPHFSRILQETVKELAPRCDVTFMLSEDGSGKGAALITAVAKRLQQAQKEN

Hexokinase-1 = Hexokinase-1 (Homo sapiens, UniProt P19367); experiment: SAR analysis of small molecule inhibitors of hexokinase domain containing I (HKDC1) in the hexokinase 1 selectivity assay. [Related pubchem assays (depositor defined):AID493160, AID493190]; assay type: functional
[5] = target: Dual specificity protein kinase CLK1 (Homo sapiens, UniProt P49759); experiment: inhibition of human CLK1 activity – biochemical, cherry-picked samples, selectivity assay for Dyrk1A inhibitor project, dose response (AID 588811)
HEK293 [6] = experiment: cells; conditions: Homo sapiens
[7] = target: Nucleotide-binding oligomerization domain-containing protein 2 (Homo sapiens, UniProt Q9HC29); experiment: inhibition of NOD2-driven NF-kB reporter – cell-based, luminescence, uHTS, HEK293 (AID 1566); assay type: functional
Tumor necrosis factor = Tumor necrosis factor (Homo sapiens, UniProt P01375); experiment: analog potency on TNFa NF-kB signaling – cell-based, revised, SAR follow-up (AID 2337); assay type: functional
[8] = target: T2, Corticotropin-releasing factor receptor 2/Corticotropin-releasing factor-binding protein (Homo sapiens, UniProt P24387+Q13324); experiment: activators of CRF receptor 2 with binding protein – uHTS hits, confirmation (AID 602473); assay type: functional; conditions: read-out: EC50_Mean
T2 sequence (Q13324 whole entry): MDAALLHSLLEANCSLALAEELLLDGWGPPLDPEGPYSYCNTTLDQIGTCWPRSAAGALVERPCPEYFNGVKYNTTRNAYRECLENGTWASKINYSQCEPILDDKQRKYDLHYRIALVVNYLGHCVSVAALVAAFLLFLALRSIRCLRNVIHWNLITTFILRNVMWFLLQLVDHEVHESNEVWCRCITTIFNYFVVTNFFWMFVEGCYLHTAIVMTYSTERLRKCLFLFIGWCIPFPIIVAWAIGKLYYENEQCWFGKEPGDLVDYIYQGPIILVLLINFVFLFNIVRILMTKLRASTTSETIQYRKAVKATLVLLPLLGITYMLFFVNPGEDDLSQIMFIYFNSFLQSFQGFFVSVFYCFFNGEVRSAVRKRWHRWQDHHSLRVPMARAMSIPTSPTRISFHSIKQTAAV
T2 sequence (P24387 whole entry): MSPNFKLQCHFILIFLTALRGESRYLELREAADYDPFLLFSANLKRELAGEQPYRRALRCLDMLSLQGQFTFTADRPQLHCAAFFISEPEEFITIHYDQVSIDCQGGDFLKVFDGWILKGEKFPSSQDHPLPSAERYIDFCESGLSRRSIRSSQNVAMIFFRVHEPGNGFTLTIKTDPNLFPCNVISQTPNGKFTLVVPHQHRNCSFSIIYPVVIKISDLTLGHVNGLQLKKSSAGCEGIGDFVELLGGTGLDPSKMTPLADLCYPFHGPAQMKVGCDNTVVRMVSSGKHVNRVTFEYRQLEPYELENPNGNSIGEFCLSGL

HEK293 [9] = experiment: inhibition of NOD1-driven NF-kB reporter – cell-based, luminescence, uHTS, primary screen (AID 1578); assay type: functional; conditions: Homo sapiens
[10] = target: T2, Corticotropin-releasing factor receptor 2/Corticotropin-releasing factor-binding protein; experiment: Dose Response confirmation of uHTS hits for small molecule antagonists of the CRF-binding protein and CRF-R2 receptor complex.; assay type: functional; conditions: read-out: IC50_Mean
[11] = target: Nucleotide-binding oligomerization domain-containing protein 1 (Homo sapiens, UniProt Q9Y239); experiment: blockers of NOD1 pathway activity – revised, SAR follow-up (AID 2333); assay type: functional
HEK293 [12] = experiment: cells; assay type: functional, cell-based; conditions: Homo sapiens
HEK293 [13] = experiment: cells; assay type: functional, cell-based; conditions: Homo sapiens; remark: listed apart in the source
HEK293 [14] = experiment: cells; assay type: functional, cell-based; conditions: Homo sapiens; remark: listed apart in the source
[15] = blockers of CRF-binding protein–CRF-R2 complex – cell-based, uHTS hits, 384-well, dose response (AID 651639); assay type: functional, Homo sapiens; conditions: read-out: IC50_Mean
HEK293 [16] = experiment: NOD2 signaling inhibitors in MDP-stimulated cells, cell-based, uHTS, luminescence (AID 2001); assay type: functional; conditions: Homo sapiens

Hexokinase-1, sequence (P19367 whole entry, the tested form may be a part): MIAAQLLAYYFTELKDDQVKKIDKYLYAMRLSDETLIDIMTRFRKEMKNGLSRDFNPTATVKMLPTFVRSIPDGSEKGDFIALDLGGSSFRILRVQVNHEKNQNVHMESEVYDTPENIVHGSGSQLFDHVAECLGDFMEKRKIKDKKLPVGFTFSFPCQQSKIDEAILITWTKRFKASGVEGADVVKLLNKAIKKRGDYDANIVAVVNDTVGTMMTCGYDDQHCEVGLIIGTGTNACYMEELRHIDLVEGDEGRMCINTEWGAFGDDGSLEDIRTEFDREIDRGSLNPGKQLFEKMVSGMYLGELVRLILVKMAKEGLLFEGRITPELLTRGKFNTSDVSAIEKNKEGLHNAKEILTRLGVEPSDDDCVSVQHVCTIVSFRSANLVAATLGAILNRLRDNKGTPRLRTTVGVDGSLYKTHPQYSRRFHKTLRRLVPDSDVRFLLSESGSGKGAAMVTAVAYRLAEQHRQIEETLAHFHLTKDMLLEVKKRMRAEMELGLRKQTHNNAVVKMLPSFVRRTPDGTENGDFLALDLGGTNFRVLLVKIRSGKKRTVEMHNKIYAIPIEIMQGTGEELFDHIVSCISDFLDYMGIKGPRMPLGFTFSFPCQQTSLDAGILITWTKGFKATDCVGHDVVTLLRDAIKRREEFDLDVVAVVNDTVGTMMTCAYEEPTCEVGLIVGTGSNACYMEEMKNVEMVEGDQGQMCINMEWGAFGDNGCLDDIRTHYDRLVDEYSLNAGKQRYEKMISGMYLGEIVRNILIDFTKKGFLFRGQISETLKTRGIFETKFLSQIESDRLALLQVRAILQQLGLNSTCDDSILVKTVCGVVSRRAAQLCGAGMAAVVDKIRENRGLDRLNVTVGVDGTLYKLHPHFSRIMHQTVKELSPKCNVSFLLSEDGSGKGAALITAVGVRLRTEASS
Nucleotide-binding oligomerization domain-containing protein 2, sequence (Q9HC29 whole entry, the tested form may be a part): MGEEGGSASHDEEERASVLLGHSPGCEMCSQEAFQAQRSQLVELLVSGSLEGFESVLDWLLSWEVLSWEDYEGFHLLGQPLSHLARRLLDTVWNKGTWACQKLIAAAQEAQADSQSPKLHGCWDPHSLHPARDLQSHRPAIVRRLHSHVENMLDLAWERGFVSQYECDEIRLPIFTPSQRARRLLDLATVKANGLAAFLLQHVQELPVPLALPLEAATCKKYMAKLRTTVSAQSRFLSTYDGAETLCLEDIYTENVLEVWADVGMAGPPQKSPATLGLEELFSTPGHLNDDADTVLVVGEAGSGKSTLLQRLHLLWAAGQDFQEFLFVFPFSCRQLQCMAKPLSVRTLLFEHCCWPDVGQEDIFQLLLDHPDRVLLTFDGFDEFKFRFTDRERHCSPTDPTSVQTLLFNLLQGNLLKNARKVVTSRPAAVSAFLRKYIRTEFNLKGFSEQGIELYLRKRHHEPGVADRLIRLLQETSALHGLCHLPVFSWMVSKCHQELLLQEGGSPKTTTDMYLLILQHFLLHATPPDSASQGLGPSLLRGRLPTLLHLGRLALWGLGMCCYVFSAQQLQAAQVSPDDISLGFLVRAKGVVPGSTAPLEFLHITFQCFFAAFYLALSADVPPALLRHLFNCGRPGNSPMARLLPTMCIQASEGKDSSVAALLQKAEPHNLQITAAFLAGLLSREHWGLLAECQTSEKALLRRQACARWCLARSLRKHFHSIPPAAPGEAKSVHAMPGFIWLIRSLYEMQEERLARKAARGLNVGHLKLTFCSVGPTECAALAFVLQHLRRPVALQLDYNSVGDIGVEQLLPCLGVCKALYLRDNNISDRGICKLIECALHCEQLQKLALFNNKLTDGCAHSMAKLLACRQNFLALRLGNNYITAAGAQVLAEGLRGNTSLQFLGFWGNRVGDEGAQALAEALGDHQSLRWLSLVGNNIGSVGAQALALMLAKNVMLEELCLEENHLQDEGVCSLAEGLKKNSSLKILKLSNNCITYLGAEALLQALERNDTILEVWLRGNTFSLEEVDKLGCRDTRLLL
Tumor necrosis factor, sequence (P01375 whole entry): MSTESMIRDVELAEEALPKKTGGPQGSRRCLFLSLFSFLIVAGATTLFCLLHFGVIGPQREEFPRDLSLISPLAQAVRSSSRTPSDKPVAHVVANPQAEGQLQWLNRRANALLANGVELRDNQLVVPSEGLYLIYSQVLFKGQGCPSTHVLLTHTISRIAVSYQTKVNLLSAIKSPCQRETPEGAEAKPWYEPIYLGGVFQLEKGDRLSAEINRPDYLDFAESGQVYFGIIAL
ADP-ribosylation factor GTPase-activating protein 1, sequence (Q62848 whole entry): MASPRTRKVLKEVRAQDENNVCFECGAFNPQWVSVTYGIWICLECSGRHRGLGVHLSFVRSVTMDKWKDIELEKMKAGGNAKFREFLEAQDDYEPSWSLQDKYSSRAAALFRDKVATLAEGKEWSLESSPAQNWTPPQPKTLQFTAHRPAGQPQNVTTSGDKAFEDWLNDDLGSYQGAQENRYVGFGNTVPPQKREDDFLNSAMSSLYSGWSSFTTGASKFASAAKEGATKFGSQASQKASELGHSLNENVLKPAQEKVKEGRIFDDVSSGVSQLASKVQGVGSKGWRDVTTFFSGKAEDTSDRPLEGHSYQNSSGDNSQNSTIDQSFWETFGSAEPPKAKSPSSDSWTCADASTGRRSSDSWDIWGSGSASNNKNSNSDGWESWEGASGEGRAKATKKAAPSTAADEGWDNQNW
Nucleotide-binding oligomerization domain-containing protein 1, sequence (Q9Y239 whole entry, the tested form may be a part): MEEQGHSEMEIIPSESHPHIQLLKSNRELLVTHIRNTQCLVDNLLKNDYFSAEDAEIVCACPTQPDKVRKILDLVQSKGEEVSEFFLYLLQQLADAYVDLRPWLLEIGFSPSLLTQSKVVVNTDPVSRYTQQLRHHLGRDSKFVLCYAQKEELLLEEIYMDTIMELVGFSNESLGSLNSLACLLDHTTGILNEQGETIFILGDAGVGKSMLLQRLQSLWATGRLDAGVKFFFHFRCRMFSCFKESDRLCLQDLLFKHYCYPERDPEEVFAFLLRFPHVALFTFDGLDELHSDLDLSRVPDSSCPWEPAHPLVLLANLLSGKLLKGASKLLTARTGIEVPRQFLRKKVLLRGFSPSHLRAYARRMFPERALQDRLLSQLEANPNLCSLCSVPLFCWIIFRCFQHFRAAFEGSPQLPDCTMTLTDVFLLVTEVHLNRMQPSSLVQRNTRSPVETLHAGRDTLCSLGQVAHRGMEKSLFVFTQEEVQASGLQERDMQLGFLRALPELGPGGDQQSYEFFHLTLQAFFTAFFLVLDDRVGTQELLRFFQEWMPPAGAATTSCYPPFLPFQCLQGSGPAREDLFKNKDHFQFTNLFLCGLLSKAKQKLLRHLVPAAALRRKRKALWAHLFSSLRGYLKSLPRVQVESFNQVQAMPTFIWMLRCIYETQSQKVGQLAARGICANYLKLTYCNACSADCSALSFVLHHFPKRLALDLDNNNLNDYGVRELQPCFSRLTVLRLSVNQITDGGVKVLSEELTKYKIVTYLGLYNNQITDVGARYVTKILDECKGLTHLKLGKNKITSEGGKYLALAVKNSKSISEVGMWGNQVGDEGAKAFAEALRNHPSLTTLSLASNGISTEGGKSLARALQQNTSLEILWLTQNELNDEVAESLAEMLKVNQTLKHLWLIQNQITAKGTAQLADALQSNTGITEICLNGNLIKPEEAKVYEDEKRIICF
Dual specificity protein kinase CLK1, sequence (P49759 whole entry): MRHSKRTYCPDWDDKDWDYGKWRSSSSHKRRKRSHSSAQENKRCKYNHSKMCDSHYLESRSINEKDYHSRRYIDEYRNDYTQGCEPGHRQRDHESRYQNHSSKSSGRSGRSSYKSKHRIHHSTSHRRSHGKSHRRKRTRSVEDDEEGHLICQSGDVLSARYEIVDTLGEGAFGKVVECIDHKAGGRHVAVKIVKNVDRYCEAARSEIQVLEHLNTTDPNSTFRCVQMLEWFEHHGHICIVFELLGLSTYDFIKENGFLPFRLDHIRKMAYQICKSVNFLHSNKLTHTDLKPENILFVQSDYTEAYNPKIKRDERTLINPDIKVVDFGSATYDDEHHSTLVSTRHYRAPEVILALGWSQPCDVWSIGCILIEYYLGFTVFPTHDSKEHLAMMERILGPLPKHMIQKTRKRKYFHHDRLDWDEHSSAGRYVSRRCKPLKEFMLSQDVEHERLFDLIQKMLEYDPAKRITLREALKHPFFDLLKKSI

O=C(/C=C/c1ccccc1)Nc1nc(-c2ccncc2)cs1
EC50 [1]: 17.6 µM (active)
IC50 [2]: 28.8 µM (inactive)
EC50 [3]: 0.843 µM (active)
AC50 [4]: 0.103 µM (active)

O=c1c2ccccc2nc(/C=C/c2cccnc2)n1Cc1ccccc1Cl
IC50 (Hexokinase HKDC1): > 80 µM (inactive)
IC50 (Hexokinase-1): > 80 µM (inactive)

c1nc(NCC2CCCOC2)c2cc(-c3ccc4c(c3)OCO4)ccc2n1 (stereo unspecified)
AC50 [5]: 0.0101 µM (active)

O=c1c2ccccc2nc(/C=C/c2cccc(Cl)c2)n1Cc1ccccc1
IC50 (Hexokinase HKDC1): > 80 µM (inactive)
IC50 (Hexokinase-1): > 80 µM (inactive)

CC1CCN(S(=O)(=O)c2nnc(NC(=O)c3cccc(Cl)c3)s2)CC1
IC50 (HEK293 [6]): 17.2 µM (active)
EC50 [7]: 16.8 µM (active)
IC50 (Tumor necrosis factor): 6.64 µM (active)
EC50 [8]: > 53 µM (inactive)
EC50 (HEK293 [9]): 2.64 µM (active)
IC50 [10]: 14.6 µM (active)
IC50 [11]: 5.14 µM (active)
IC50 (HEK293 [12]): 11.1 µM (active)
IC50 (HEK293 [13]): > 20 µM (inactive)
IC50 (HEK293 [14]): > 20 µM (inactive)
IC50 [15]: > 20 µM (inactive)
IC50 (HEK293 [16]): 9.2 µM (active)
